The record followed here is patent publication US20070032529A1, “Pyrazole compounds and their use as antidiabetes agents” (Japan Tobacco Inc., priority 2005, published 2007).

Like-named read-outs stand apart in the source and are kept apart here. A value given as a limit tells only on which side of the number the result lay.

The IC50 is the concentration that gives 50% inhibition.

The assay addresses T1, recombinant human liver glycogen phosphorylase (Homo sapiens, UniProt P06737).
T1 construct: made in house; host or cells: Sf9 insect cells (crude homogenate, diluted, used as the enzyme solution)
T1 sequence (P06737 1-847): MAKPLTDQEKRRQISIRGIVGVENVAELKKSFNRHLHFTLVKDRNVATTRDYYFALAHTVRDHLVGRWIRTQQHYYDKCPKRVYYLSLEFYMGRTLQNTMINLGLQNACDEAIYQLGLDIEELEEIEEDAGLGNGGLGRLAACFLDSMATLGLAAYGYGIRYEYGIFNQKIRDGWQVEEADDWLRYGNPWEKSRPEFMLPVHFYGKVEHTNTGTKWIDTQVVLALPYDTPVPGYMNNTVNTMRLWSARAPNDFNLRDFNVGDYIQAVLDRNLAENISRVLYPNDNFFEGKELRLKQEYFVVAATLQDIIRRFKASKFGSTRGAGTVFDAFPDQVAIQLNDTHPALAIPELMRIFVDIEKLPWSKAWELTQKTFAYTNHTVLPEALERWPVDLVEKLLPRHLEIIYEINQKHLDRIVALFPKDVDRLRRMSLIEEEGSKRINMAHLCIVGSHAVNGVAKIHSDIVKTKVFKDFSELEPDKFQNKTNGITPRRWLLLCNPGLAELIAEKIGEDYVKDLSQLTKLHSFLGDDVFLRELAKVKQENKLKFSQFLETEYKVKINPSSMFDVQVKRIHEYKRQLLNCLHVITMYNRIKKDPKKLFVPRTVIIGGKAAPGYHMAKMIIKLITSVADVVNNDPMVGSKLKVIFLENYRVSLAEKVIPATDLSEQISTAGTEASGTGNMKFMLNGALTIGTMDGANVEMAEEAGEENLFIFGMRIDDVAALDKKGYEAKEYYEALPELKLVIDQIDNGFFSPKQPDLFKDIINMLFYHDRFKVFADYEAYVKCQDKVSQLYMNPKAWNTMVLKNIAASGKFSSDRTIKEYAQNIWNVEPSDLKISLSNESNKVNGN
Put plainly: Measuring liver glycogen phosphorylase activity (forward reaction system, NADPH absorbance at 340 nm). The class given is biochemical. The protocol: [Pharmacological Test] 1. Exemplary Test (1) Method for Measuring Liver Glycogen Phosphorylase Activity
The measurement of glycogen phosphorylase activity was carried out by a method using the forward reaction system.
The measurement of glycogen phosphorylase activity using the forward reaction system was carried out as follows. Glucose-1-phosphate prepared from glycogen by glycogen phosphorylase was converted into glucono-δ-lactone 6-phosphate through transphosphorylation and dehydrogenation using phosphoglucomutase and glucose-6-phosphate dehydrogenase (G6PDH). NADPH generated from NADP during the dehydrogenation by G6PDH was detected.
A homogenate of the Sf9 cells which expressed exogenously recombinant human liver glycogen phosphorylase was diluted with 100 mmol/LBES buffer solution (pH 6.8, containing 2 mmol/L EDTA) and the dilution was used as the enzyme solution of human liver glycogen phosphorylase. As the substrate, a phosphate buffer (containing 16 mmol/L KH2PO4, 24 mmol/L Na2HPO4) was used. A mixture of 8 U/mL phosphoglucomutase and 60 U/mL G6PDH was prepared in BES buffer solution. Buffer solution (containing 1.4 mmol/L NADP, 30 mmol/L MgCl2, 8 μmol/L glucose-1,6-diphosphate, 8 mg/mL glycogen, 40 mmol/LBES, 0.8 mmol/L EDTA) for reaction and a glucose solution (containing 75 mmol/L glucose, 100 mmol/LBES, 2 mmol/L EDTA) were prepared individually. The test compound was dissolved in 1% DMSO solution.
The enzymatic reaction was begun by adding 20 μL of the recombinant human liver glycogen phosphorylase solution and 20 μL of the mixture of phosphoglucomutase and G6PDH to the mixture of 20 μL of the glucose solution, 20 μL of the substrate, 100 μL of the buffer solution for reaction and 20 μL of the test compound solution. As control, 1% DMSO solution was added instead of the test compound. The mixture without the substrate was used as blank. The absorbance at 340 nm was measured immediately after the reaction started. The absorbance at 340 nm was measured again after reacting at room temperature for 75 minutes. The enzymatic activity is a value obtained by subtracting the blank variation in absorbance over 75 minutes from the variation in absorbance over 75 minutes.
The inhibition rate (%) of the test compound was calculated by the expression “(1-enzymatic activity of test compound/enzymatic activity of control)×100.”
A linear equation was determined from the two concentration points with the 50% inhibition rate therebetween, and the IC50 value was calculated from the concentration at the intersection of the line with the 50% inhibition rate.
“IC50” in the tables indicates the above-described enzyme inhibitory activity with respect to liver glycogen phosphorylase, and the activity to inhibit liver glycogen phosphorylase was represented as ++ when the IC50 value (nmol/L) was less than 100 nmol/L, as + when the IC50 value was between 100 nmol/L and 300 nmol/L. When IC50 is 300 nmol/L or more, an inhibition rate (%) at a certain concentration of the compound (I) of the present invention is shown in Tables. For example, when the inhibition rate is 20% at a concentration of 300 nmol, the rate is described as 20% (300).

Where [1] appears, read: enzyme inhibitory activity with respect to liver glycogen phosphorylase, class symbols.
Where [2] appears, read: compound concentration 300 nmol (in parentheses), read-out: inhibition rate (%) at a certain concentration.
[3] abbreviates: figure in brackets (100), read-out: IC50: % value given with (100).
Setting [4] is: compound concentration 100 nmol (in parentheses), read-out: inhibition rate (%) at a certain concentration.
Setting [5] is: human liver glycogen phosphorylase, class symbol.

In the case of `O=C(Nc1cc(C(=O)N2CCCc3ccccc32)n[nH]1)c1cc(F)c(F)cc1Cl` [Example 3-15], the IC50 under setting [1] lay in the range of 100 to 300 nM.

For the compound `Cc1ccc(Cl)cc1C(=O)Nc1cc(C(=O)NCc2ccccc2)n[nH]1` [Example 4-13], under setting [2], the inhibition at 0.3 µM turned out to be 38%. The same measure, in the same setting: the figure for `CCCCN(C(=O)c1cc(NC(=O)c2cc(F)c(F)cc2Cl)[nH]n1)C1CCNCC1` [Example 1-109] is 33.3%. For `CCCN(C(=O)c1cc(NC(=O)c2cc(F)c(F)cc2Cl)[nH]n1)C1CCN(C(=O)CC(=O)O)CC1` [Example 1-124], the IC50 under setting [1] was less than 100 nM. On to `CCCCN(C(=O)c1cc(NC(=O)c2cc(F)c(F)cc2Cl)[nH]n1)C1CCS(=O)(=O)CC1` [Example 1-114], for which, under setting [2], the inhibition at 0.3 µM was determined as 38.9%. As for `CCCCCN(C(=O)c1cc(NC(=O)c2cc(F)c(F)cc2Cl)[nH]n1)c1ccccc1` [Example 3-18], the IC50 under setting [1] fell in the range of 100 to 300 nM. Turning to `CS(=O)(=O)Nc1cc(F)c(F)cc1C(=O)Nc1cc(C(=O)NCc2cccnc2)n[nH]1` [Example 7-12], the inhibition at 0.1 µM under setting [3] worked out at 8%. Take `O=C(NCCc1ccccn1)c1cc(NC(=O)c2cc(F)c(F)cc2Cl)[nH]n1` [Example 1-139]: the inhibition at 0.1 µM under setting [4] came to 22.9%. Regarding `O=C(NCc1csc(-c2ccccc2)n1)c1cc(NC(=O)c2cc(F)c(F)cc2Cl)[nH]n1` [Example 2-19], the IC50 under setting [1] was less than 100 nM. The same measure, in the same setting: the same measure for `COc1cccc(CNC(=O)c2cc(NC(=O)c3cc(F)c(F)cc3Cl)[nH]n2)c1OC` [Example 1-13]: less than 100 nM. In the case of `O=C(NC1CCc2ccccc21)c1cc(NC(=O)c2cc(F)c(F)cc2Cl)[nH]n1` (centres unmarked) [Example 6-41], under setting [3], the inhibition at 0.1 µM was determined as 12.3%. On to `CCN(Cc1ccncc1)C(=O)c1cc(NC(=O)c2cc(F)c(F)cc2Cl)[nH]n1` [Example 1-5], for which the IC50 under setting [1] is less than 100 nM. As for `CCCN(C(=O)c1cc(NC(=O)c2cc(F)c(F)cc2Cl)[nH]n1)c1ccccc1` [Example 3-16], under setting [1], the IC50 was less than 100 nM. Same read-out and setting: the figure for `O=C(NCC1CCCCC1)c1cc(NC(=O)c2cc(F)c(F)cc2Cl)[nH]n1` [Example 1-76] is less than 100 nM; for `CC(C)(C)c1cnc(CNC(=O)c2cc(NC(=O)c3cc(F)c(F)cc3Cl)[nH]n2)s1` [Example 1-60] it is less than 100 nM. Consider `O=C(NCc1ccccc1)c1cc(NC(=O)c2ccncc2Cl)[nH]n1` [Example 4-44], for which the inhibition at 0.1 µM under setting [4] came to 5.7%.

In the case of `CCOc1cc(C(C)(C)C(=O)O)cnc1NC(=O)c1cc(NC(=O)c2cc(F)c(F)cc2Cl)[nH]n1` [Example 1-150], the inhibition at 0.1 µM under setting [4] is 13.8%.

Turning to `C[C@@H](NC(=O)c1cc(NC(=O)c2cc(F)c(F)cc2Cl)[nH]n1)c1ccccc1` [Example 2-20], the inhibition at 0.1 µM under setting [4] is 43.1%. In the case of `CCc1nc(C)c(CNC(=O)c2cc(NC(=O)c3cc(F)c(F)cc3Cl)[nH]n2)o1` [Example 1-158], the IC50 under setting [1] is less than 100 nM. The same measure, in the same setting: the figure for `O=C(NCc1cc(F)cc(F)c1)c1cc(NC(=O)c2cc(F)c(F)cc2Cl)[nH]n1` [Example 1-23] is less than 100 nM. Turning to `CC(C)(NC(=O)c1cc(NC(=O)c2cc(F)c(F)cc2Cl)[nH]n1)c1ccccc1` [Example 4-10], the inhibition at 0.59 µM (compound concentration 590 nmol (in parentheses), read-out: inhibition rate (%) at a certain concentration) came out at 50%. For the compound `O=C(N[C@H](CO)c1ccccc1)c1cc(NC(=O)c2cc(F)c(F)cc2Cl)[nH]n1` [Example 3-23], the inhibition at 1 µM (compound concentration 1000 nmol (in parentheses), read-out: inhibition rate (%) at a certain concentration) is 26.1%. Consider `O=C(NCc1ccccc1Cl)c1cc(NC(=O)c2cc(F)c(F)cc2Cl)[nH]n1` [Example 3-36], for which the IC50 under setting [1] was less than 100 nM.

Consider `O=C(NCc1cccc(Cl)c1)c1cc(NC(=O)c2cc(F)c(F)cc2Cl)[nH]n1` [Example 3-37], for which the IC50 under setting [1] is less than 100 nM.

As for `Cn1cccc1CNC(=O)c1cc(NC(=O)c2cc(F)c(F)cc2Cl)[nH]n1` [Example 1-58], the IC50 under setting [1] was less than 100 nM. Same read-out and setting: the figure for `COc1ccccc1N(C)C(=O)c1cc(NC(=O)c2cc(F)c(F)cc2Cl)[nH]n1` [Example 3-28] is 100 to 300 nM. Take `Nc1cc(F)c(F)cc1CNC(=O)c1cc(NC(=O)c2cc(F)c(F)cc2Cl)[nH]n1` [Example 6-40]: the IC50 under setting [5] is less than 100 nM.

On to `COc1ccc(C(=O)Nc2cc(C(=O)NCc3ccccc3)n[nH]2)c(C)c1` [Example 4-14], for which, under setting [2], the inhibition at 0.3 µM was determined as 10.6%. As for `O=C(NCCN1CCOCC1)c1cccc(CNC(=O)c2cc(NC(=O)c3cc(F)c(F)cc3Cl)[nH]n2)c1` [Example 5-11], the IC50 under setting [1] is less than 100 nM. On the same count and under the same terms, the figure for `CC(C)c1ccc(CNC(=O)c2cc(NC(=O)c3cc(F)c(F)cc3Cl)[nH]n2)cc1` [Example 1-35] is less than 100 nM. `CC(=O)Nc1ccccc1CNC(=O)c1cc(NC(=O)c2cc(F)c(F)cc2Cl)[nH]n1` [Example 6-20]: the IC50 under setting [5] was less than 100 nM. For `O=C(NCCc1ccccc1)c1cc(NC(=O)c2cc(F)c(F)cc2Cl)[nH]n1` [Example 3-9], the inhibition at 0.48 µM (compound concentration 480 nmol (in parentheses), read-out: inhibition rate (%) at a certain concentration) stood at 50%. As for `O=C(NC1Cc2ccccc2C1)c1cc(NC(=O)c2cc(F)c(F)cc2Cl)[nH]n1` [Example 6-42], under setting [3], the inhibition at 0.1 µM was found to be 21.7%. As for `N=C(Nc1cccc(CNC(=O)c2cc(NC(=O)c3cc(F)c(F)cc3Cl)[nH]n2)c1)c1ccccc1F` [Example 6-34], the IC50 under setting [5] is less than 100 nM. Turning to `CCCCCCc1nc(C)c(CNC(=O)c2cc(NC(=O)c3cc(F)c(F)cc3Cl)[nH]n2)o1` [Example 1-163], under setting [1], the IC50 is less than 100 nM.

Consider `CCCCN(C(=O)c1cc(NC(=O)c2cc(F)c(F)cc2Cl)[nH]n1)C1CCCCC1` [Example 1-89], for which, under setting [1], the IC50 was less than 100 nM. For the compound `O=C(O)CCNC(=O)c1ccc(CNC(=O)c2cc(NC(=O)c3cc(F)c(F)cc3Cl)[nH]n2)cc1` [Example 5-7], the IC50 under setting [1] was less than 100 nM. As for `CN(C(=O)c1cc(NC(=O)c2cc(F)c(F)cc2Cl)[nH]n1)c1ccc(C(=N)NO)cc1` [Example 6-11], under setting [3], the inhibition at 0.1 µM amounted to 2.1%. Turning to `O=C(NCc1cccnc1)c1cc(NC(=O)c2cc(F)c(Cl)nc2Cl)[nH]n1` [Example 7-5], the inhibition at 0.3 µM (figure in brackets (300), read-out: IC50 column: % value printed with (300)) was found to be 8.5%. In the case of `Nc1cccc(CNC(=O)c2cc(NC(=O)c3cc(F)c(F)cc3Cl)[nH]n2)c1` [Example 3-30], under setting [1], the IC50 was less than 100 nM. With `NC(=O)CNC(=O)c1cc(NC(=O)c2cc(F)c(F)cc2Cl)[nH]n1` [Example 6-1], the inhibition at 0.1 µM under setting [3] was found to be 15.5%. As for `COCCNC(=O)c1cc(NC(=O)c2cc(F)c(F)cc2Cl)[nH]n1` [Example 1-106], the IC50 under setting [1] was in the range of 100 to 300 nM. With `CS(=O)(=O)Nc1ccccc1CNC(=O)c1cc(NC(=O)c2cc(F)c(F)cc2Cl)[nH]n1` [Example 6-19], under setting [5], the IC50 is less than 100 nM.

Turning to `CCCCN(C(=O)c1cc(NC(=O)c2cc(F)c(F)cc2Cl)[nH]n1)c1ccccc1` [Example 3-17], the IC50 under setting [1] was less than 100 nM.
